Source: article PMC9026082, “Madecassic Acid—A New Scaffold for Highly Cytotoxic Agents” (International Journal of Molecular Sciences, 2022)
Blank lines part the entries; values can stand above or below the molecule they belong to.

What was measured:
[1] = test system: NIH 3T3 (non-malignant fibroblasts); assay: SRB cytotoxicity assay, NIH 3T3; format: cell-based; settings: cut-off 30 μM
Description: (§1) To assess their cytotoxicity parent, triterpenoic acids 1–3, their acetates 4–6, the amides 7–18, as well as the respective rhodamine B conjugates 19–24 were subjected to SRB assays employing several human tumor cell lines (A375, HT29, MCF-7, A2780, and HeLa) as well as non-malignant fibroblasts (NIH 3T3).
(§2) A detailed description of materials and methods can be found in the Supplementary Materials File. For biological screening, the cell lines were obtained from ATCC: A375 (CRL-1619), HT29 (HTB-38), MCF7 (HTP-22), A2780 (HTP-77), HeLa (CCL-2), and NIH 3T3 (CRL-1573) ^13C NMR spectra (Supplementary Materials) were recorded as APT spectra showing CH and CH3 groups as positive signals and CH2 groups and quaternary carbons as negative signals. […]
(§3) 2. Cytotoxicity assay (SRB assay)
(§4) The cell lines were obtained from Department of oncology (Martin-Luther-University Halle Wittenberg). Cultures were maintained as monolayers in RPMI 1640 medium with L-glutamine (Capricorn Scientific GmbH, Ebsdorfergrund, Germany) supplemented with 10% heat inactivated fetal bovine serum (Sigma -Aldrich Chemie GmbH, Steinheim, Germany) and penicillin/streptomycin (1%, Capricorn Scientific GmbH, Ebsdorfergrund, Germany) at 37 °C in a humidified atmosphere with 5% CO 2.
(§5) The cytotoxicity of the compounds was eva luated using the sulforhodamine -B (Kiton-Red S, ABCR) micro culture colorimetric assay using […] in 96 -well plates with the seeding of the cells on day 0 applying appropriate cell densities to prevent confluence of the cells during the period of the experiment. On day 1, the cells were treated with six di fferent concentrations (1, 3, 7, 12, 20 and 30 μM); thereby, the final concentration of DMSO was always < 0.5%, generally regarded as non-toxic to the cells. On day 4, the supernatant medium was discarded; the cells were fixed with 10 % trichloroacetic acid. After another day at 4 °C, the cells were washed in a strip washer and dyed with the SRB solution (100 μL, 0.4% in 1% acetic acid) for about 20 min to be followed by washing of the plates (four times, 1% acetic acid) and air -drying […]
(§6) overnight. Furthermore, tris base solution (200 μL, 10 mM) was added to each well and absorbance was measured at λ = 570 nm employing a reader (96 wells, Tecan Spectra, Crailsheim, Germany). The EC50 values were averaged from three independent experiments performed each in triplicate calculated from semi logarithmic dose response curves applying a non-linear four-parameter Hills-slope equation (GraphPad Prism5; variables top and bottom were set to 100 and 0, respectively).

[2] = test system: A2780 (ovarian carcinoma); assay: SRB cytotoxicity assay, A2780; format: cell-based, human; settings: SRB assay, 72 h of treatment, cut-off 30 μM
Description: as §1, §2, §3, §4, §5, §6

A375 (melanoma) = assay: SRB cytotoxicity assay, A375; format: cell-based, human; settings: 72 h of treatment, cut-off 30 μM
Description: as §1, §2, §3, §4, §5, §6

[3] = test system: HT29 (colorectal carcinoma); assay: SRB cytotoxicity assay, HT29; format: cell-based, human; settings: cut-off 30 μM
Description: as §1, §2, §3, §4, §5, §6

[4] = test system: MCF7 (breast adenocarcinoma); assay: SRB cytotoxicity assay, MCF7; format: cell-based, human; settings: cut-off 30 μM
Description: as §1, §2, §3, §4, §5, §6

[5] = test system: HeLa (cervical carcinoma); assay: SRB cytotoxicity assay, HeLa; format: cell-based, human; settings: 72 h of treatment, cut-off 30 μM
Description: as §1, §2, §3, §4, §5, §6

[6] = test system: several human tumor cell lines (A375, HT29, MCF-7, A2780, and HeLa); assay: SRB assays, cell line not given; format: cell-based; settings: Homo sapiens; SRB assays; lowest value of the series, cell line not stated; read-out: EC50 values as low as (analogs of madecassic acid)
Description: as §1, with “3T3). […]” for “3T3).”
as §3, §4, §5, §6

[7] = Mus musculus, NIH3T3, 72 h of treatment
[8] = Homo sapiens, HT-29, 72 h of treatment
[9] = Homo sapiens, MCF7, 72 h of treatment

Molecule: CC1(C)CC[C@]2(C(=O)O)CC[C@]3(C)C(=CC[C@@H]4[C@@]5(C)CC[C@H](O)[C@@](C)(CO)[C@@H]5CC[C@]43C)[C@@H]2C1 [Compound 2, (3β,4α) 3,23-Dihydroxyolean-12-en-28-oic Acid]
- EC50 [1, 7]: > 30 µM
- EC50 ([2]; Homo sapiens, A2780): 19.6 ± 1.6 µM
- EC50 (A375 (melanoma); Homo sapiens, A-375, 72 h): 26.3 ± 1.8 µM
- EC50 [3, 8]: > 30 µM
- EC50 [4, 9]: 25.7 ± 1.9 µM
- EC50 ([5]; Homo sapiens, HeLa): > 30 µM

Molecule: CC(=O)O[C@H]1CC[C@]2(C)[C@H]3CC=C4[C@@H]5CC(C)(C)CC[C@]5(C(=O)O)CC[C@@]4(C)[C@]3(C)CC[C@H]2[C@]1(C)C=O [Compound 4, (3β,4α) 3-(Acetyloxy)-23-oxoolean-12-en-28-oic Acid]
- EC50 (A375 (melanoma); Homo sapiens, A-375, 72 h): > 30 µM
- EC50 [3, 8]: > 30 µM
- EC50 [4, 9]: 24.6 ± 4.7 µM
- EC50 ([5]; Homo sapiens, HeLa): > 30 µM

- melting point: 185 to 189 °C
Molecule: CC(=O)OC[C@@]1(C)[C@@H]2CC[C@]3(C)[C@H](CC=C4[C@@H]5CC(C)(C)CC[C@]5(C(=O)O)CC[C@]43C)[C@@]2(C)CC[C@@H]1OC(C)=O [Compound 5, (3β,4α) 3,23-Bis(acetyloxy)olean-12-en-28-oic Acid]
- EC50 [1, 7]: 9.6 ± 0.6 µM
- EC50 ([2]; Homo sapiens, A2780): 11.9 ± 0.5 µM
- EC50 (A375 (melanoma); Homo sapiens, A-375, 72 h): 17.1 ± 1.1 µM
- EC50 [3, 8]: 19 ± 0.6 µM
- EC50 [4, 9]: 9.8 ± 1 µM
- EC50 ([5]; Homo sapiens, HeLa): 12.4 ± 0.7 µM

- EC50 [6]: ≥ 0.015 µM
- melting point: 90 to 95 °C
Molecule: CC(=O)OC[C@@]1(C)[C@@H]2[C@H](O)C[C@]3(C)[C@H](CC=C4[C@@H]5[C@@H](C)[C@H](C)CC[C@]5(C(=O)NCc5ccccc5)CC[C@]43C)[C@@]2(C)C[C@@H](OC(C)=O)[C@@H]1OC(C)=O [Compound 15, (2α,3β,4α,6β) 2,3,23-Tris(acetyloxy)-N-(benzyl)-6-hydroxyurs-12-en-28-amide]
- EC50 [1, 7]: 17.9 ± 2.1 µM
- EC50 ([2]; Homo sapiens, A2780): 1.4 ± 0.1 µM
- EC50 (A375 (melanoma); Homo sapiens, A-375, 72 h): 1 ± 0.1 µM
- EC50 [3, 8]: 2.3 ± 0.2 µM
- EC50 [4, 9]: 2.7 ± 0.4 µM

- EC50 [6]: ≥ 0.015 µM
- melting point: 135 to 139 °C
Molecule: CC(=O)OC[C@@]1(C)[C@@H]2[C@H](O)C[C@]3(C)[C@H](CC=C4[C@@H]5[C@@H](C)[C@H](C)CC[C@]5(C(=O)Nc5ccccc5)CC[C@]43C)[C@@]2(C)C[C@@H](OC(C)=O)[C@@H]1OC(C)=O [Compound 16, (2α,3β,4α,6β) 2,3,23-Tris(acetyloxy)-N-(phenyl)-6-hydroxyurs-12-en-28-amide]
- EC50 [1, 7]: 21.1 ± 1.1 µM
- EC50 ([2]; Homo sapiens, A2780): 2.2 ± 0.1 µM
- EC50 (A375 (melanoma); Homo sapiens, A-375, 72 h): 1.3 ± 0.1 µM
- EC50 [3, 8]: 3.7 ± 0.4 µM
- EC50 [4, 9]: 4.5 ± 0.9 µM

- EC50 [6]: ≥ 0.015 µM
Molecule: CCN(CC)c1ccc2c(-c3ccccc3C(=O)N3CCN(C(=O)[C@]45CC[C@@H](C)[C@H](C)[C@H]4C4=CC[C@@H]6[C@@]7(C)C[C@@H](OC(C)=O)[C@H](OC(C)=O)[C@@](C)(COC(C)=O)[C@@H]7[C@H](O)C[C@@]6(C)[C@]4(C)CC5)CC3)c3ccc(=[N+](CC)CC)cc-3oc2c1 [Compound 23, N-{6-Diethylamino-9-[2-({4[ (2α,3β,4α,6β)-2,3,23-tris(acetyloxy)-6-hydroxy-28-oxours-12-en-28-yl)-1-piperazinyl]carbonyl]phenyl]-3H-xanthen-3-ylidene)-N-ethylethanaminium Chloride]
- EC50 [1, 7]: 0.277 ± 0.03 µM
- EC50 ([2]; Homo sapiens, A2780): 0.015 ± 0.001 µM
- EC50 (A375 (melanoma); Homo sapiens, A-375, 72 h): 0.055 ± 0.01 µM
- EC50 [3, 8]: 0.108 ± 0.02 µM
- EC50 [4, 9]: 0.054 ± 0.01 µM

Molecule: (3β,4α) 3-Hydroxy-23-oxoolean-12-en-28-oic Acid [Compound 1]
- EC50 ([1]; 72 h of treatment): 16.7 ± 2.8 µM
- EC50 [2]: 13 ± 1.6 µM
- EC50 (A375 (melanoma)): 17.3 ± 1.6 µM
- EC50 ([3]; 72 h of treatment): > 30 µM
- EC50 ([4]; 72 h of treatment): 18.5 ± 2.2 µM
- EC50 [5]: 25 ± 4.1 µM
